Experimental data published in patent publication US6235780A, “ω-cycloalkyl-prostaglandin E1 derivatives” (Ono Pharmaceutical Co., Ltd., priority 1998, dated 2001).

How the values were obtained:
mouse EP1 = biological target: T1, mouse EP1 (Mus musculus, UniProt P35375); assay: Binding assay using expression cell of prostanoids receptor subtype: 3H-PGE2 binding inhibition, EP1; settings: 2.5 nM 3H-PGE2, CHO cell membrane fraction, pH 6.0, room temperature, 1 hour; read-out: Dissociation Constant Ki, EP1
T1 construct: expressed in transfected cells; host or cells: CHO cells
T1 sequence (P35375 1-405): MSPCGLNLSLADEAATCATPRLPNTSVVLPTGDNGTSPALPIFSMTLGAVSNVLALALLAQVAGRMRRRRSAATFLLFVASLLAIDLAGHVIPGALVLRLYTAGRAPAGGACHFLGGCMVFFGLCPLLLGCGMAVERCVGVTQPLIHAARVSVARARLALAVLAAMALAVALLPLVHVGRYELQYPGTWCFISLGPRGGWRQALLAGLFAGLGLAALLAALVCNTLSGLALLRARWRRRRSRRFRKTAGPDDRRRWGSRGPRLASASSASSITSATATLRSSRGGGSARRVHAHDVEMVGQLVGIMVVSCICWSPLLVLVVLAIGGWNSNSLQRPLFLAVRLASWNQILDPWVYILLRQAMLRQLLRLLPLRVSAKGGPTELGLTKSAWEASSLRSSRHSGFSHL
Description: (§1) (i) Binding assay using expression cell of prostanoids receptor subtype
(§2) The preparation of membrane fraction was carried out according to the method of Sugimoto et al. [J. Biol. Chem., 267, 6463-6466 (1992)], using expression CHO cell of the prostanoids receptor subtype (mouse EP1, EP2, EP3α, EP4).
(§3) The standard assay mixture containing membrane fraction (0.5 mg/ml), and ^3 H-PGE2 in a final volume of 200 μl was incubated at room temperature for 1 hour. The reaction was terminated by addition of 3 ml of ice-cooled buffer. The mixture was filtered through a GF/B glass filter under reduced pressure. The radioactivity associated with the filter was measured by liquid scintillation counter.
(§4) Kd and Bmax values were determined from Scatchard plots [Ann. N.Y. Acad. Sci., 51, 660 (1949)]. Non-specific binding was calculated as the binding in the presence of an excess (10 μM) of unlabeled PGE2. In the measurement of ^3 H-PGE2 binding inhibitory activity, 2.5 nM of ^3 H-PGE2 and various concentrations of the compounds of the present invention were added. The following buffer was used in all reactions.
(§5) Buffer; 10 mM potassium phosphate (pH 6.0), 1 mM EDTA, 10 mM MgCl2, 0.1 M NaCl.
(§6) The dissociation constant Ki (μM) of each compound was calculated by the following equation.

mouse EP2 = biological target: T2, mouse EP2 (Mus musculus, UniProt Q62053); assay: Binding assay using expression cell of prostanoids receptor subtype: 3H-PGE2 binding inhibition, EP2; settings: 2.5 nM 3H-PGE2, CHO cell membrane fraction, pH 6.0, room temperature, 1 hour; read-out: Dissociation Constant Ki, EP2
T2 construct: expressed in transfected cells; host or cells: CHO cells
Description: as §1, §2, §3, §4, §5, §6

mouse EP3α = biological target: T3, mouse EP3α (Mus musculus, UniProt P30557); assay: Binding assay using expression cell of prostanoids receptor subtype: 3H-PGE2 binding inhibition, EP3α; settings: 2.5 nM 3H-PGE2, CHO cell membrane fraction, pH 6.0, room temperature, 1 hour; read-out: Dissociation Constant Ki, EP3α
T3 construct: expressed in transfected cells; host or cells: CHO cells
T3 sequence (P30557 1-365): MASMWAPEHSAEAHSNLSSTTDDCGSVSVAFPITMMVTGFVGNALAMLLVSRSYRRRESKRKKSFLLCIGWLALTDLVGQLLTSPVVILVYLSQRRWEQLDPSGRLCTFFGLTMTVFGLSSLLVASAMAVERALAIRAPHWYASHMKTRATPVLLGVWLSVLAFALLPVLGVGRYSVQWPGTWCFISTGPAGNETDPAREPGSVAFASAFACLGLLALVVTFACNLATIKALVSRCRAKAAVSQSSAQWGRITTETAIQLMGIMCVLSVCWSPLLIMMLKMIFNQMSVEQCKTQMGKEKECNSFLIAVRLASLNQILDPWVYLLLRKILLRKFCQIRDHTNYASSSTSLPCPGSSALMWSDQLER
Description: as §1, §2, §3, §4, §5, §6

mouse EP4 = biological target: T4, mouse EP4 (Mus musculus, UniProt P32240); assay: Binding assay using expression cell of prostanoids receptor subtype: 3H-PGE2 binding inhibition, EP4; settings: 2.5 nM 3H-PGE2, CHO cell membrane fraction, pH 6.0, room temperature, 1 hour; read-out: Dissociation Constant Ki, EP4
T4 construct: expressed in transfected cells; host or cells: CHO cells
Description: as §1, §2, §3, §4, §5, §6

T4 sequence (P32240 whole entry): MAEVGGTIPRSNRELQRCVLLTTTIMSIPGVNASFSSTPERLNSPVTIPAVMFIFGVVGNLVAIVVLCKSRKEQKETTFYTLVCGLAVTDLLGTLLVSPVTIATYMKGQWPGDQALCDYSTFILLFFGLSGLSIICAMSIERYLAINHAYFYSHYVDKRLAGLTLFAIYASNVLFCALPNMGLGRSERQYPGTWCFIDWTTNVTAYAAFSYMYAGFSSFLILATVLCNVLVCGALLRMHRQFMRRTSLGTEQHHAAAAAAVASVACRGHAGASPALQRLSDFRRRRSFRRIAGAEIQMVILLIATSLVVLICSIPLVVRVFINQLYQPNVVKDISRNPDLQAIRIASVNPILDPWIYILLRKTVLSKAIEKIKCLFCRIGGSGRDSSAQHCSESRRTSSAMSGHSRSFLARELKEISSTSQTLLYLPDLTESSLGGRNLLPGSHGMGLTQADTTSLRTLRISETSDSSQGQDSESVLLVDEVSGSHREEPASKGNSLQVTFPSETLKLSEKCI
T2 sequence (Q62053 whole entry): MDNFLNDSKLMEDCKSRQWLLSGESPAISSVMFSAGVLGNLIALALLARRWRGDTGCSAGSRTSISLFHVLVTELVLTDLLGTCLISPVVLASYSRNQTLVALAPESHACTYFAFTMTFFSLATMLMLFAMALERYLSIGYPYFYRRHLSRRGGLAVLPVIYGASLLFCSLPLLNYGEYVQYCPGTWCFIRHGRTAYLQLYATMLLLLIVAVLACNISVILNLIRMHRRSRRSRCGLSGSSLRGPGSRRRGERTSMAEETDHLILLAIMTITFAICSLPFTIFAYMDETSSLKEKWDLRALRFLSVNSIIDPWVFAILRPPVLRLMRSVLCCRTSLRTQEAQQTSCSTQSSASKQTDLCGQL

Ki (mouse EP1) [µM]	Ki (mouse EP2) [µM]	Ki (mouse EP3α) [µM]	Ki (mouse EP4) [µM]	Compound
> 10	0.066	> 10	> 10	CCC1([C@@H](O)C/C=C/[C@@H]2[C@@H](CCCCCCC(=O)O)[C@H](F)C[C@H]2O)CCC1 [Example 2(a), (9β,11α,16α)-9-Fluoro-11,16-dihydroxy-17,17-propano-20-norprosta-13E-enoic acid]
5.7	0.0081	> 10	1.7	CCC1([C@@H](O)C/C=C/[C@@H]2[C@@H](CCCCCCC(=O)O)[C@H](Cl)C[C@H]2O)CCC1 [Example 2, (9β,11α,16α)-9-Chloro-11,16-dihydroxy-17,17-propano-20-norprosta-13E-enoic acid]
3.5	0.017	> 10	> 10	CCC1([C@@H](O)CCC[C@@H]2[C@@H](CCCCCCC(=O)O)[C@H](Cl)C[C@H]2O)CCC1 [Example 3(a), (9β,11α,16α)-9-Chloro-11,16-dihydroxy-17,17-propano-20-norprostanoic acid]
